Measured values: the supplement of paper PMC6045584
± gives the standard deviation of the averaged measurements.

Key:
CELECOXIB [1] = compound: T1, Cc1ccc(-c2cc(C(F)(F)F)nn2-c2ccc(S(N)(=O)=O)cc2)cc1 [CELECOXIB]; test: surviving fraction relative to DMSO-only wells; higher = less growth inhibition; conditions: exposure time: 5 days
In short: (§1)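 Luminescence normalised to the median of DMSO-only wells defines surviving fraction, with viability read by CellTiter-Glo. Signal was recorded after 10 minutes at room temperature, once log-phase tumour cell lines seeded at 250–500 cells per well in 384-well plates had spent 24 hours settling and then five days under continuous exposure to inhibitors at 0.5, 1, 5, 10, 50, 100, 500 and 1000 nM.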

GEFITINIB [2] = compound: T2, COc1cc2ncnc(Nc3ccc(F)c(Cl)c3)c2cc1OCCCN1CCOCC1 [GEFITINIB]; test: as above; conditions: exposure time: 5 days
In short: as §1

[3] = compound: CC(=O)NCC(=O)N1[C@@H]2CC[C@H]1c1ccc(Nc3ncc(C(F)(F)F)c(NC4CCC4)n3)cc12; test: as above; conditions: exposure time: 5 days
In short: as §1

OSI-906 [4] = compound: T3, C[C@]1(O)C[C@@H](c2nc(-c3ccc4ccc(-c5ccccc5)nc4c3)c3c(N)nccn32)C1 [OSI-906]; test: as above; conditions: exposure time: 5 days
In short: as §1

PACLITAXEL [5] = compound: T4, CC(=O)O[C@H]1C(=O)[C@@]2(C)[C@H]([C@H](OC(=O)c3ccccc3)[C@]3(O)C[C@H](OC(=O)[C@H](O)[C@@H](NC(=O)c4ccccc4)c4ccccc4)C(C)=C1C3(C)C)[C@]1(OC(C)=O)CO[C@@H]1C[C@@H]2O [PACLITAXEL]; test: as above; conditions: exposure time: 5 days
In short: as §1

CARBOPLATIN [6] = compound: T5, O=C(O)C1(C(=O)O)CCC1.[NH2-].[NH2-].[Pt+2] [CARBOPLATIN]; test: as above; conditions: exposure time: 5 days
In short: as §1

CAMPTOTHECIN [7] = compound: T6, CC[C@@]1(O)C(=O)OCc2c1cc1n(c2=O)Cc2cc3ccccc3nc2-1 [CAMPTOTHECIN]; test: as above; conditions: exposure time: 5 days
In short: as §1

YM155 [8] = compound: T7, COCC[n+]1c2c(n(Cc3cnccn3)c1C)C(=O)c1ccccc1C2=O [YM155]; test: as above; conditions: exposure time: 5 days
In short: as §1

[9] = compound: CC(=O)c1c(C)c2cnc(Nc3ccc(N4CCNCC4)cn3)nc2n(C2CCCC2)c1=O; test: as above; conditions: exposure time: 5 days
In short: as §1

CELECOXIB [10] = compound: T1, CELECOXIB; test: area under dose-response curve of surviving fraction (unscaled, Aref=0) (surviving fraction x log10(nM)); higher = more resistant; conditions: exposure time: 5 days; dose range 0.5-1000 nM
In short: (§2)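 Each tumour cell line was screened three times in 384-well plates, receiving eight inhibitor concentrations from 0.5 to 1000 nM for five days. CellTiter-Glo luminescence gave viability, normalised to DMSO-only wells. Using the drc R package, surviving fractions were fitted with 3-parameter logistic dose-response curves, and the unscaled activity area over log10 dose (Aref = 0) was taken as the area under the curve.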

GEFITINIB [11] = compound: T2, GEFITINIB; test: as above; conditions: exposure time: 5 days; dose range 0.5-1000 nM
In short: as §2

[12] = compound: CC(=O)NCC(=O)N1[C@@H]2CC[C@H]1c1ccc(Nc3ncc(C(F)(F)F)c(NC4CCC4)n3)cc12; test: as above; conditions: exposure time: 5 days; dose range 0.5-1000 nM
In short: as §2

OSI-906 [13] = compound: T3, OSI-906; test: as above; conditions: exposure time: 5 days; dose range 0.5-1000 nM
In short: as §2

PACLITAXEL [14] = compound: T4, PACLITAXEL; test: as above; conditions: exposure time: 5 days; dose range 0.5-1000 nM
In short: as §2

CARBOPLATIN [15] = compound: T5, CARBOPLATIN; test: as above; conditions: exposure time: 5 days; dose range 0.5-1000 nM
In short: as §2

CAMPTOTHECIN [16] = compound: T6, CAMPTOTHECIN; test: as above; conditions: exposure time: 5 days; dose range 0.5-1000 nM
In short: as §2

YM155 [17] = compound: T7, YM155; test: as above; conditions: exposure time: 5 days; dose range 0.5-1000 nM
In short: as §2

[18] = compound: CC(=O)c1c(C)c2cnc(Nc3ccc(N4CCNCC4)cn3)nc2n(C2CCCC2)c1=O; test: as above; conditions: exposure time: 5 days; dose range 0.5-1000 nM
In short: as §2

Q: Which results are given for NCIH441 LUNG?
A: surviving fraction (CELECOXIB [1]; 0.5 nM): 1.16 ± 0.019; surviving fraction (CELECOXIB [1]; 1 nM): 1.19 ± 0.043; surviving fraction (CELECOXIB [1]; 5 nM): 1.1 ± 0.11; surviving fraction (CELECOXIB [1]; 10 nM): 1.11 ± 0.035; surviving fraction (CELECOXIB [1]; 50 nM): 1.11 ± 0.068; surviving fraction (CELECOXIB [1]; 100 nM): 1.06 ± 0.17; surviving fraction (CELECOXIB [1]; 500 nM): 1.06 ± 0.14; surviving fraction (CELECOXIB [1]; 1000 nM): 1.1 ± 0.19; surviving fraction (GEFITINIB [2]; 0.5 nM): 1.17 ± 0.048; surviving fraction (GEFITINIB [2]; 1 nM): 1.15 ± 0.064; surviving fraction (GEFITINIB [2]; 5 nM): 1.07 ± 0.089; surviving fraction (GEFITINIB [2]; 10 nM): 1.114 ± 0.0055; surviving fraction (GEFITINIB [2]; 50 nM): 1.07 ± 0.18; surviving fraction (GEFITINIB [2]; 100 nM): 1.12 ± 0.18; surviving fraction (GEFITINIB [2]; 500 nM): 1.01 ± 0.21; surviving fraction (GEFITINIB [2]; 1000 nM): 0.963 ± 0.058; surviving fraction ([3]; 0.5 nM): 0.945 ± 0.064; surviving fraction ([3]; 1 nM): 0.954 ± 0.056; surviving fraction ([3]; 5 nM): 0.939 ± 0.065; surviving fraction ([3]; 10 nM): 0.927 ± 0.12; surviving fraction ([3]; 50 nM): 0.991 ± 0.022; surviving fraction ([3]; 100 nM): 0.856 ± 0.049; surviving fraction ([3]; 500 nM): 0.626 ± 0.08; surviving fraction ([3]; 1000 nM): 0.588 ± 0.0087; surviving fraction (OSI-906 [4]; 0.5 nM): 0.976 ± 0.058; surviving fraction (OSI-906 [4]; 1 nM): 1 ± 0.033; surviving fraction (OSI-906 [4]; 5 nM): 0.993 ± 0.07; surviving fraction (OSI-906 [4]; 10 nM): 0.969 ± 0.03; surviving fraction (OSI-906 [4]; 50 nM): 1.04 ± 0.034; surviving fraction (OSI-906 [4]; 100 nM): 1.03 ± 0.028; surviving fraction (OSI-906 [4]; 500 nM): 0.841 ± 0.019; surviving fraction (OSI-906 [4]; 1000 nM): 0.737 ± 0.048; surviving fraction (PACLITAXEL [5]; 0.5 nM): 0.961 ± 0.12; surviving fraction (PACLITAXEL [5]; 1 nM): 0.93 ± 0.046; surviving fraction (PACLITAXEL [5]; 5 nM): 0.529 ± 0.0097; surviving fraction (PACLITAXEL [5]; 10 nM): 0.429 ± 0.032; surviving fraction (PACLITAXEL [5]; 50 nM): 0.261 ± 0.013; surviving fraction (PACLITAXEL [5]; 100 nM): 0.303 ± 0.018; surviving fraction (PACLITAXEL [5]; 500 nM): 0.284 ± 0.013; surviving fraction (PACLITAXEL [5]; 1000 nM): 0.304 ± 0.02; surviving fraction (CARBOPLATIN [6]; 0.5 nM): 1.08 ± 0.027; surviving fraction (CARBOPLATIN [6]; 1 nM): 1.12 ± 0.063; surviving fraction (CARBOPLATIN [6]; 5 nM): 1.08 ± 0.049; surviving fraction (CARBOPLATIN [6]; 10 nM): 1.13 ± 0.093; surviving fraction (CARBOPLATIN [6]; 50 nM): 1.07 ± 0.2; surviving fraction (CARBOPLATIN [6]; 100 nM): 0.961 ± 0.091; surviving fraction (CARBOPLATIN [6]; 500 nM): 1.02 ± 0.16; surviving fraction (CARBOPLATIN [6]; 1000 nM): 1.04 ± 0.21; surviving fraction (CAMPTOTHECIN [7]; 0.5 nM): 0.951 ± 0.045; surviving fraction (CAMPTOTHECIN [7]; 1 nM): 0.896 ± 0.03; surviving fraction (CAMPTOTHECIN [7]; 5 nM): 0.743 ± 0.019; surviving fraction (CAMPTOTHECIN [7]; 10 nM): 0.474 ± 0.031; surviving fraction (CAMPTOTHECIN [7]; 50 nM): 0.201 ± 0.02; surviving fraction (CAMPTOTHECIN [7]; 100 nM): 0.114 ± 0.016; surviving fraction (CAMPTOTHECIN [7]; 500 nM): 0.0587 ± 0.0095; surviving fraction (CAMPTOTHECIN [7]; 1000 nM): 0.044 ± 0.003; surviving fraction (YM155 [8]; 0.5 nM): 0.991 ± 0.038; surviving fraction (YM155 [8]; 1 nM): 1.05 ± 0.024; surviving fraction (YM155 [8]; 5 nM): 0.547 ± 0.064; surviving fraction (YM155 [8]; 10 nM): 0.284 ± 0.023; surviving fraction (YM155 [8]; 50 nM): 0.0333 ± 0.0011; surviving fraction (YM155 [8]; 100 nM): 0.0273 ± 0.00058; surviving fraction (YM155 [8]; 500 nM): 0.023 ± 0.001; surviving fraction (YM155 [8]; 1000 nM): 0.0267 ± 0.0011; surviving fraction ([9]; 0.5 nM): 1.16 ± 0.055; surviving fraction ([9]; 1 nM): 1.1 ± 0.056; surviving fraction ([9]; 5 nM): 1.064 ± 0.0076; surviving fraction ([9]; 10 nM): 1.07 ± 0.02; surviving fraction ([9]; 50 nM): 1.08 ± 0.093; surviving fraction ([9]; 100 nM): 1.09 ± 0.052; surviving fraction ([9]; 500 nM): 1.15 ± 0.14; surviving fraction ([9]; 1000 nM): 1 ± 0.13; area under dose-response curve (CELECOXIB [10]): 3.66; area under dose-response curve (GEFITINIB [11]): 3.59; area under dose-response curve [12]: 2.94; area under dose-response curve (OSI-906 [13]): 3.21; area under dose-response curve (PACLITAXEL [14]): 1.56; area under dose-response curve (CARBOPLATIN [15]): 3.51; area under dose-response curve (CAMPTOTHECIN [16]): 1.41; area under dose-response curve (YM155 [17]): 1.12; area under dose-response curve [18]: 3.59
